Experimental data reported in the supplement of paper PMC10307832.

Experiments:
Test in all cases: relative viability (nuclei count vs DMSO), 5 days (fraction); higher = more cells survive
NCI-H2087 = tested on: NCI-H2087
Procedure, shortened: (§1)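 Dosing by pin tool came one day after lung cancer cell lines were seeded in 1536-well plates, using either one drug or a fixed anchor-drug dose plus five library-drug doses (not always all listed) in √10 steps. After 5 days, nuclei were counted on 4× images. Relative viability is treated-well nuclei count divided by vehicle-well nuclei count, and values are medians of duplicate plates.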

LXF-289 = tested on: LXF-289
Procedure, shortened: as §1

NCI-H1651 = tested on: NCI-H1651
Procedure, shortened: as §1

COR-L23 = tested on: COR-L23
Procedure, shortened: as §1

HCC-44 = tested on: HCC-44
Procedure, shortened: as §1

LU99A = tested on: LU99A
Procedure, shortened: as §1

NCI-H1792 = tested on: NCI-H1792
Procedure, shortened: as §1

NCI-H1563 = tested on: NCI-H1563
Procedure, shortened: as §1

NCI-H1355 = tested on: NCI-H1355
Procedure, shortened: as §1

CAL-12T = tested on: CAL-12T
Procedure, shortened: as §1

BEN = tested on: BEN
Procedure, shortened: as §1

NCI-H460 = tested on: NCI-H460
Procedure, shortened: as §1

PC-14 = tested on: PC-14
Procedure, shortened: as §1

NCI-H1755 = tested on: NCI-H1755
Procedure, shortened: as §1

NCI-H1993 = tested on: NCI-H1993
Procedure, shortened: as §1

NCI-H1666 = tested on: NCI-H1666
Procedure, shortened: as §1

SK-MES-1 = tested on: SK-MES-1
Procedure, shortened: as §1

NCI-H520 = tested on: NCI-H520
Procedure, shortened: as §1

NCI-H2085 = tested on: NCI-H2085
Procedure, shortened: as §1

NCI-H1437 = tested on: NCI-H1437
Procedure, shortened: as §1

Compound: CN1CCN(CCOc2cc(OC3CCOCC3)c3c(Nc4c(Cl)ccc5c4OCO5)ncnc3c2)CC1 [Saracatinib] + C[C@]1(O)C[C@@H](c2nc(-c3ccc4ccc(-c5ccccc5)nc4c3)c3c(N)nccn32)C1 [Linsitinib] (partner 1 µM)
- relative viability (NCI-H2087; first compound 0.02 µM): 1.11
- relative viability (NCI-H2087; first compound 0.2 µM): 0.947
- relative viability (NCI-H2087; first compound 0.6325 µM): 1.2
- relative viability (NCI-H2087; first compound 2 µM): 1.12
- relative viability (LXF-289; first compound 0.02 µM): 0.979
- relative viability (LXF-289; first compound 0.2 µM): 0.92
- relative viability (LXF-289; first compound 0.6325 µM): 0.968
- relative viability (LXF-289; first compound 2 µM): 0.963
- relative viability (NCI-H1651; first compound 0.02 µM): 0.944
- relative viability (NCI-H1651; first compound 0.2 µM): 0.661
- relative viability (NCI-H1651; first compound 0.6325 µM): 0.807
- relative viability (NCI-H1651; first compound 2 µM): 0.67
- relative viability (COR-L23; first compound 0.02 µM): 0.86
- relative viability (COR-L23; first compound 0.2 µM): 0.558
- relative viability (COR-L23; first compound 0.6325 µM): 0.789
- relative viability (COR-L23; first compound 2 µM): 0.584
- relative viability (HCC-44; first compound 0.02 µM): 0.729
- relative viability (HCC-44; first compound 0.2 µM): 0.51
- relative viability (HCC-44; first compound 0.6325 µM): 0.823
- relative viability (HCC-44; first compound 2 µM): 0.717
- relative viability (LU99A; first compound 0.02 µM): 0.575
- relative viability (LU99A; first compound 0.2 µM): 0.372
- relative viability (LU99A; first compound 0.6325 µM): 0.465
- relative viability (LU99A; first compound 2 µM): 0.411
- relative viability (NCI-H1792; first compound 0.02 µM): 0.533
- relative viability (NCI-H1792; first compound 0.2 µM): 0.374
- relative viability (NCI-H1792; first compound 0.6325 µM): 0.647
- relative viability (NCI-H1792; first compound 2 µM): 0.384
- relative viability (NCI-H1563; first compound 0.02 µM): 1.09
- relative viability (NCI-H1563; first compound 0.2 µM): 1.16
- relative viability (NCI-H1563; first compound 0.6325 µM): 1.05
- relative viability (NCI-H1563; first compound 2 µM): 0.891
- relative viability (NCI-H1355; first compound 0.02 µM): 0.793
- relative viability (NCI-H1355; first compound 0.2 µM): 0.767
- relative viability (NCI-H1355; first compound 0.6325 µM): 0.832
- relative viability (NCI-H1355; first compound 2 µM): 0.615
- relative viability (CAL-12T; first compound 0.02 µM): 0.805
- relative viability (CAL-12T; first compound 0.2 µM): 0.776
- relative viability (CAL-12T; first compound 0.6325 µM): 0.863
- relative viability (CAL-12T; first compound 2 µM): 1.03
- relative viability (BEN; first compound 0.02 µM): 0.991
- relative viability (BEN; first compound 0.2 µM): 0.914
- relative viability (BEN; first compound 0.6325 µM): 1.15
- relative viability (BEN; first compound 2 µM): 0.64
- relative viability (NCI-H460; first compound 0.02 µM): 0.716
- relative viability (NCI-H460; first compound 0.2 µM): 0.664
- relative viability (NCI-H460; first compound 0.6325 µM): 0.329
- relative viability (NCI-H460; first compound 2 µM): 0.181
- relative viability (PC-14; first compound 0.02 µM): 0.952
- relative viability (PC-14; first compound 0.2 µM): 0.708
- relative viability (PC-14; first compound 0.6325 µM): 0.304
- relative viability (PC-14; first compound 2 µM): 0.166
- relative viability (NCI-H1755; first compound 0.02 µM): 1
- relative viability (NCI-H1755; first compound 0.2 µM): 0.707
- relative viability (NCI-H1755; first compound 0.6325 µM): 0.95
- relative viability (NCI-H1755; first compound 2 µM): 0.896
- relative viability (NCI-H1993; first compound 0.02 µM): 0.682
- relative viability (NCI-H1993; first compound 0.2 µM): 0.715
- relative viability (NCI-H1993; first compound 2 µM): 0.621
- relative viability (NCI-H1666; first compound 0.02 µM): 0.81
- relative viability (NCI-H1666; first compound 0.2 µM): 0.909
- relative viability (NCI-H1666; first compound 0.6325 µM): 0.815
- relative viability (NCI-H1666; first compound 2 µM): 0.844
- relative viability (SK-MES-1; first compound 0.02 µM): 0.934
- relative viability (SK-MES-1; first compound 0.2 µM): 0.903
- relative viability (SK-MES-1; first compound 0.6325 µM): 0.87
- relative viability (SK-MES-1; first compound 2 µM): 0.471
- relative viability (NCI-H520; first compound 0.02 µM): 0.911
- relative viability (NCI-H520; first compound 0.2 µM): 0.786
- relative viability (NCI-H520; first compound 0.6325 µM): 0.825
- relative viability (NCI-H520; first compound 2 µM): 0.504
- relative viability (NCI-H2085; first compound 0.02 µM): 0.952
- relative viability (NCI-H2085; first compound 0.2 µM): 0.901
- relative viability (NCI-H2085; first compound 0.6325 µM): 0.881
- relative viability (NCI-H2085; first compound 2 µM): 0.898
- relative viability (NCI-H1437; first compound 0.02 µM): 1.04
- relative viability (NCI-H1437; first compound 0.2 µM): 0.985
- relative viability (NCI-H1437; first compound 0.6325 µM): 0.981
- relative viability (NCI-H1437; first compound 2 µM): 1.09
